Assay results reported in PubChem BioAssay (NCI).
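Abbreviation: GI50, concentration required for 50% inhibition of growth. TGI: total growth inhibition.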

How the values were obtained:
Assay in all cases: inhibition of tumour cell growth, NCI panel, 384-well format
LOX IMVI melanoma = tested on: LOX IMVI melanoma
U251 glioblastoma = tested on: U251 glioblastoma
SK-MEL-28 melanoma = tested on: SK-MEL-28 melanoma
MALME-3M melanoma = tested on: MALME-3M melanoma
ACHN renal = tested on: ACHN renal
MDA-MB-435 melanoma = tested on: MDA-MB-435 melanoma
RPMI-8226 leukemia = tested on: RPMI-8226 leukemia
KM12 colon = tested on: KM12 colon
UACC-62 melanoma = tested on: UACC-62 melanoma
MDA-MB-231 breast = tested on: MDA-MB-231 breast
NCI-H522 lung = tested on: NCI-H522 lung
PC-3 prostate = tested on: PC-3 prostate
SF-295 CNS = tested on: SF-295 CNS
OVCAR-3 ovarian = tested on: OVCAR-3 ovarian
NCI-H23 lung = tested on: NCI-H23 lung
A549 NSCLC = tested on: A549 NSCLC
MCF7 breast = tested on: MCF7 breast
HOP-62 NSCLC = tested on: HOP-62 NSCLC
NCI-H226 lung = tested on: NCI-H226 lung
SNB-75 CNS = tested on: SNB-75 CNS
EKVX NSCLC = tested on: EKVX NSCLC
DU-145 prostate = tested on: DU-145 prostate
SF-268 CNS = tested on: SF-268 CNS
K-562 leukemia = tested on: K-562 leukemia
SW-620 colon = tested on: SW-620 colon
IGROV1 ovarian = tested on: IGROV1 ovarian
HOP-92 NSCLC = tested on: HOP-92 NSCLC
786-0 renal = tested on: 786-0 renal

Cc1c(NC(=O)OC[C@@H]2COCCN2)cn2ncnc(Nc3ccc4c(cnn4Cc4cccc(F)c4)c3)c12
TGI (LOX IMVI melanoma): 3.2 µM | GI50 (U251 glioblastoma): 1.91 µM | TGI (U251 glioblastoma): 3.54 µM | GI50 (SK-MEL-28 melanoma): 2.15 µM | TGI (SK-MEL-28 melanoma): 4.05 µM | GI50 (MALME-3M melanoma): 2.23 µM | TGI (MALME-3M melanoma): 4.77 µM | GI50 (ACHN renal): 0.815 µM | TGI (ACHN renal): 12.7 µM | GI50 (MDA-MB-435 melanoma): 4.66 µM | TGI (MDA-MB-435 melanoma): 13.3 µM | GI50 (RPMI-8226 leukemia): 2.29 µM | TGI (RPMI-8226 leukemia): 4.19 µM | GI50 (KM12 colon): 3.74 µM | TGI (KM12 colon): 13.5 µM | GI50 (UACC-62 melanoma): 1.91 µM | TGI (UACC-62 melanoma): 3.56 µM | GI50 (MDA-MB-231 breast): 1.92 µM | TGI (MDA-MB-231 breast): 4.65 µM | GI50 (NCI-H522 lung): 0.255 µM | TGI (NCI-H522 lung): 3.82 µM | GI50 (PC-3 prostate): 3 µM | TGI (PC-3 prostate): 7.88 µM | GI50 (SF-295 CNS): 2.28 µM | TGI (SF-295 CNS): 4.89 µM | GI50 (OVCAR-3 ovarian): 2.67 µM | TGI (OVCAR-3 ovarian): 9.15 µM | GI50 (NCI-H23 lung): 3.6 µM | TGI (NCI-H23 lung): 12.4 µM | GI50 (A549 NSCLC): 2.82 µM | TGI (A549 NSCLC): 13.6 µM | GI50 (MCF7 breast): 3 µM | TGI (MCF7 breast): 10.4 µM | GI50 (HOP-62 NSCLC): 2.01 µM | TGI (HOP-62 NSCLC): 9.3 µM | GI50 (NCI-H226 lung): 5.08 µM | TGI (NCI-H226 lung): 18.1 µM | GI50 (SNB-75 CNS): 2.96 µM | TGI (SNB-75 CNS): 9 µM | GI50 (EKVX NSCLC): 1.02 µM | TGI (EKVX NSCLC): 5.16 µM | GI50 (DU-145 prostate): 2.44 µM | TGI (DU-145 prostate): 13.6 µM | GI50 (SF-268 CNS): 0.943 µM | TGI (SF-268 CNS): 3.78 µM | GI50 (K-562 leukemia): 1.79 µM | TGI (K-562 leukemia): 3.32 µM | GI50 (SW-620 colon): 3.8 µM | TGI (SW-620 colon): 12 µM | GI50 (IGROV1 ovarian): 0.0935 µM | TGI (IGROV1 ovarian): 4.96 µM | GI50 (HOP-92 NSCLC): 2.46 µM | TGI (HOP-92 NSCLC): 9.57 µM | GI50 ([…]-0 renal): 1.42 µM | TGI (786-0 renal): 2.91 µM
